Columns and labels:
[1] = test system: BABY BOOM (BBM); LEAFY COTYLEDON1 (LEC1); LEC2, and FUSCA3; assay: semi-quantitative RT-PCR of embryo-expressed genes in B. napus microspore culture; assay type: cell-based, Brassica napus; conditions: TSA-treated microspore cultures, regardless of culture temperature
Description: Total RNA isolation and on-column DNase digestion were performed using the InviTrap Spin Plant RNA Mini Kit (Invitek) according to the manufacturer's instructions. For semi-quantitative RT-PCR, 250 ng of total RNA was used for first-strand cDNA synthesis with the Taqman Reverse Transcription Reagents Kit (Applied Biosystems). The cycling parameters were: one cycle at 98° C. for 30 s, 30 cycles comprising 98° C. for 5 s, 60° C. for 30 s, followed by 72° C. for 1 min. The semi-quantitative RT-PCR primers are from Malik et al. (2007) Plant Physiol. 144: 134-154. The quantitative RT-PCR primers for microarray validation were designed based on oligonucleotide probes from Affymetrix GeneChip® Brassica Exon 1.0ST Array (see Malik et al. (2007) supra and Love, C. G., et al. (2010) PloS one 5: e12812). The Arabidopsis hda T-DNA insertion lines were genotyped using the PCR primers. […]
The cell clusters that are formed in heat-stressed, TSA-treated cultures resemble those found in control cultures that are only exposed to a heat-stress treatment. […] Semi-quantitative RT-PCR and GFP reporter lines were used to determine whether the different types of sporophytic structures that develop in control and TSA-treated cultures are embryogenic. […]

[2] = test system: Capsicum annuum microspore cultures; assay: Capsicum annuum microspore culture, embryogenic microspores and embryos per bud; assay type: cell-based; conditions: TSA during the first 20 hours
Description: Microspore cultures were performed accordingto Kim M, Jang 1-C, Kim J-A, Park E-J, Yoon M, Lee Y (2008) “Embryogenesis and plant regeneration of hot pepper (Capsicum annuum L.) through isolated microspore culture”: Plant Cell Rep 27 (3):425-434. Flower buds containing vacuolate microspores were selected according to Parra-Vega V, Gonzalez-Garcia B, Segui-Simarro J M (2013) “Morphological markers to correlate bud and anther development with microsporogenesis and microgametogenesis in pepper (Capsicum annuum L.)”: Acta Physiol Plant 35 (2):627-633. Except for “Control” and “DMSO,” the microspores were exposed to TSA (diluted in DMSO) during the first 20 hours of culture.
Cultures were performed according to Kim M, Jang 1-C, Kim J-A, Park E-J, Yoon M, Lee Y (2008) “Embryogenesis and plant regeneration of hot pepper (Capsicum annuum L.) through isolated microspore culture”; Plant Cell Rep 27 (3):425-434. Flower buds containing […] microspores were selected according to Parra-Vega V, Gonzalez-Garcia B, Segui-Simarro JM (2013) “Morphological markers to correlate bud and anther development with microsporogenesis and microgametogenesis in pepper (Capsicum annuum L.)”: Acta Physiol Plant 35 (2):627-633. Except for “Control” and “DMSO,” the microspores were exposed to TSA (diluted in DMSO) during the first 20 hours of culture.

[3] = test system: B. rapa genotypes microspore culture; assay: embryogenic cell divisions in Brassica rapa microspore culture; assay type: cell-based; conditions: 0.5 μM TSA, six B. rapa genotypes
Description: The following B. rapa genotypes were tested in an experiment that measured t h e embryogenic activity of 0.5 μM TSA in microspore culture against respective controls in the absence of TSA: Microspores were obtained from donor buds. Donor buds were ranked from youngest (1) tooldest (3) developmental stage, whereby (2) is an intermediate stage. […] The data also indicates how genotype and/or donor bud stage may influence the level of embryogenic cell divisions caused by enhancement with TSA treatment over controlsin […]. Such stage-dependency is a normal observation in this tissue culture system.

[4] = test system: Brassica oleracea Gongylodes group (kohlrabi) microspores; assay: embryo production in Brassica oleracea Gongylodes group (kohlrabi) microspore culture; assay type: cell-based
From the text: Microspores of different developmental stages were isolated by a standard method ([…] 1982, Journal of Plant Physiology 105:427-434).

With `CC(/C=C/C(=O)NO)=C\[C@@H](C)C(=O)c1ccc(N(C)C)cc1` [TSA, trichostatin A] the “expression of BBM, LEC1, LEC2 and FUSCA3” value [1] was “enhanced”, the “number of embryogenic cells compared to the control” value ([2]; 10-day-old cultures) was “enhances” and the “embryo yield (embryos per bud) compared to the control” value ([2]; 45-day-old cultures) was “enhances”. The “total number of embryogenic cells per bud size compared to the control” value [3] was “greatly increases”, the “general embryo production, sum of experiments” value ([4]; 0.5 μM TSA, not heat-shocked (25° C.), control sum 204) was 841 and the “large embryos in a recalcitrant (non-responsive) genotype” value ([4]; 18 days, not in the control) was “Large embryos are present”. The “embryogenic clusters in a recalcitrant (non-responsive) genotype” value ([4]; early time point, not in the control culture) was “found at an early time point”.

Source: patent US20210378193A1, “HAPLOID EMBRYOGENESIS” (STICHTING WAGENINGEN RESEARCH, priority 2013, published 2021)
